Experimental data published in patent publication US12065420B2, “Uses of balaenone and method of extraction thereof” (HARDIE HEALTH LIMITED, priority 2018, dated 2024).

How the values were obtained:
[1] = tested on: Staphylococcus epidermidis; experiment: TLC bioautography antibacterial assay, S. epidermidis; format: cell-based; settings: qualitative
Method: (§1) The crude (1st methanolic) extract of M. latifolia bark and five chromatographic fractions obtained using the purification process outlined in Example 1 were submitted for TLC bioautography studies for qualitative determination of antibacterial activity.
(§2) Briefly, a reference plate was prepared by loading the samples on a silica gel TLC plate which was developed using an established solvent system (10% ethyl acetate in petroleum ether) to separate their components based on polarity. The developed plates were then visualised using 5% v/v sulfuric acid in methanol+0.1% w/v vanillin in ethanol, followed by heat. Using this method, Balaenone was distinguished as a bright pink to red spot (see FIG. 7).
(§3) Multiple copies of this plate were then prepared and developed using the same solvent system, but instead are visualised by pouring agar inoculated/spiked with one of the following micro-organisms (see below) and allowed to incubate before visualisation with a reduction dye.

Staphylococcus aureus = experiment: TLC bioautography antibacterial assay, S. aureus; format: cell-based; settings: qualitative
Method: as §1, §2, §3

[2] = Storage stability of Balaenone; format: physicochemical; settings: away from light and oxygen
Text: Final purification of trans-Balaenone on silica gel separated it from an oxygenated aromatic compound, subsequently identified as halifordin (8). Without being bound by theory, it is believed that degradation is due to the presence of halifordin (8), which is also present in the methanol extract of M. latifolia.
In a separate experiment, purified trans-Balaenone was photochemically reacted with atmospheric oxygen in the presence of Rose Bengal (another known photogenerator of singlet oxygen), which generated 7b among other oxidation products.
Removal of halifordin (8) from the extract provides a purified composition of trans-Balaenone in which trans-Balaenone is stable at room temperature, when stored away from light and oxygen. It is believed that the same process would occur with respect to cis-Balaenone.

stability on storage ([2]; cool temperatures)	stability on storage ([2]; room temperature, in the absence of halifordin (8))	SMILES	antibacterial activity (zones of inhibition) [1]	antibacterial activity (zones of inhibition) (Staphylococcus aureus)
		CC1=C2c3c(C)coc3CCC(C)C2CC1=O (stereo not shown) [Balaenone]	zones of inhibition	zones of inhibition
quite stable	essentially stable	CC1=C2c3c(C)coc3CC[C@H](C)[C@H]2CC1=O [trans-Balaenone, (6S,6aR)-1,6,9-trimethyl-5,6,6a,7-tetrahydroazuleno[5,4-b]furan-8(4H)-one]		
